Assay [1] concerns Staphylococcus aureus X778. The assay can be described thus: broth micro-dilution MIC. The class given is cell-based. The procedure:
(§1) The MIC's were determined using a standard broth micro-dilution assay.
(In general: Broth dilution looks for growth in wells or tubes with falling amounts of substance.)

Assay [2] concerns Streptococcus pyogenes C203. As to the kind of experiment: broth micro-dilution MIC. The class given is cell-based. As to the method: as §1
Assay [3] concerns Staphylococcus aureus 489. As to the kind of experiment: broth micro-dilution MIC. The class given is cell-based. The procedure: as §1
Assay [4] deals with Staphylococcus aureus SA1199. The assay can be described thus: broth micro-dilution MIC. The class given is cell-based. As to the method: as §1
Assay [5] concerns Staphylococcus aureus SA1199A. The assay can be described thus: broth micro-dilution MIC. The class given is cell-based. As to the method: as §1
In assay [6] the test system is Entercoccus faecium 276. The assay can be described thus: broth micro-dilution MIC. The class given is cell-based. The procedure:
as §1

For assay [7], the system named is Staphylococcus aureus 447. The assay can be described thus: broth micro-dilution MIC. The class given is cell-based. As to the method:
as §1

The test system of assay [8] is Staphylococcus aureus 491. The assay can be described thus: broth micro-dilution MIC. The class given is cell-based. The procedure: as §1
The subject of assay [9] is Staphylococcus aureus X400. As to the kind of experiment: broth micro-dilution MIC. The class given is cell-based. The procedure: as §1
The test system of assay [10] is Staphylococcus aureus 446. As to the kind of experiment: broth micro-dilution MIC. The class given is cell-based. As to the method: as §1
Assay [11] has as its system Entercoccus faecium 180-1. As to the kind of experiment: broth micro-dilution MIC. The class given is cell-based. As to the method: as §1
The test system of assay [12] is Staphylococcus aureus SA1199B. The class given is cell-based. The procedure:
as §1

The test system of assay [13] is Staphylococcus aureus S13E. The class given is cell-based. As to the method: as §1
For assay [14], the system named is vancomycin-susceptible enterococci. The assay can be described thus: broth micro-dilution, mean geometric MIC. The class given is cell-based, Enterococcus faecium and Enterococcus faecalis. Particulars: enterococci, 24-hour incubation.
Assay [15] concerns vancomycin-resistant enterococci. As to the kind of experiment: broth micro-dilution, mean geometric MIC. The class given is cell-based, Enterococcus faecium and Enterococcus faecalis. Particulars: enterococci, 24-hour incubation.
Assay [16] deals with Streptococcus pneumoniae P1. The assay can be described thus: broth micro-dilution MIC. The class given is cell-based. The procedure: (§2) The formula I compounds have in vitro and in vivo activity against Gram-positive pathogenic bacteria. The MIC's were determined using a standard broth micro-dilution assay.
Assay [17] has as its system Staphylococcus haemolyticus 415. As to the kind of experiment: broth micro-dilution MIC. The class given is cell-based. The procedure:
as §2

Assay [18] relates to Staphylococcus epidermidis 270. As to the kind of experiment: broth micro-dilution MIC. The class given is cell-based. As to the method: as §2
Assay [19] deals with Staphylococcus haemolyticus 105. The assay can be described thus: broth micro-dilution MIC. The class given is cell-based. The procedure:
as §2

The test system of assay [20] is Enterococcus gallinarum 245. As to the kind of experiment: broth micro-dilution MIC. The class given is cell-based. Particulars: Enterococcus gallinarum 245. The procedure: as §2
In assay [21] the test system is Entercoccus faecium 180. As to the kind of experiment: broth micro-dilution MIC. To be noted: Entercoccus faecium 180. The class given is cell-based. As to the method:
as §2

The test system of assay [22] is Escherichia coli EC14. As to the kind of experiment: broth micro-dilution MIC. The class given is cell-based. As to the method:
as §2

In assay [23] the test system is Haemophilus influenzae RD. The assay can be described thus: broth micro-dilution MIC. To be noted: Haemophilus influenzae RD. The class given is cell-based. As to the method: as §2
Assay [24] has as its system Entercoccus faecium 2041. As to the kind of experiment: broth micro-dilution MIC. Particulars: Entercoccus faecium 2041. The class given is cell-based. The procedure: as §2

Converted amounts (≈) assume the structure as drawn.

Consider `CC(C)CC(C(=O)NC1C(=O)NC(CC(N)=O)C(=O)NC2C(=O)NC3C(=O)NC(C(=O)NC(C(=O)O)c4cc(O)cc(O)c4-c4cc3ccc4O)C(OC3CC(C)(N)C(O)C(C)O3)c3ccc(c(Cl)c3)Oc3cc2cc(c3OC2OC(CO)C(O)C(O)C2OC2CC(C)(NCc3ccc4c(c3)OCO4)C(O)C(C)O2)Oc2ccc(cc2Cl)C1O)N(C)Cc1ccc2c(c1)OCO2` (stereo not drawn) [Compound 265], for which the MIC in [1] is 0.5 µg/mL (≈ 0.269 µM); in assay [2], not above 0.06 µg/mL; in assay [3] it was 0.5 µg/mL (≈ 0.269 µM); in [4], 2 µg/mL (≈ 1.07 µM); in assay [5], not above 0.06 µg/mL; in assay [6] it was 0.5 µg/mL (≈ 0.269 µM). The MIC was 2 µg/mL (≈ 1.07 µM) in assay [7]; 2 µg/mL (≈ 1.07 µM) in [8]; 0.5 µg/mL (≈ 0.269 µM) in assay [9]; 2 µg/mL (≈ 1.07 µM) in assay [10]; not above 0.06 µg/mL in assay [11]; 0.5 µg/mL (≈ 0.269 µM) in assay [12]. The MIC in [13] was 0.5 µg/mL (≈ 0.269 µM); in assay [16], not above 0.06 µg/mL; in assay [17] it was 1 µg/mL (≈ 0.537 µM); in [18], 4 µg/mL (≈ 2.15 µM); in assay [19], 8 µg/mL (≈ 4.3 µM); in assay [20] it was 1 µg/mL (≈ 0.537 µM). Besides, the MIC in assay [21] is 8 µg/mL (≈ 4.3 µM); in assay [22], more than 64 µg/mL; in [23] it was more than 64 µg/mL; in assay [24], 0.25 µg/mL (≈ 0.134 µM). In addition, in [14], the “mean geometric MIC, Vancomycin Sensitive Strains” value is 0.87 µg/mL. The “mean geometric MIC, Vancomycin Resistant Strains” value in assay [15] was 54 µg/mL.
In the case of `CC(C)CC(C(=O)NC1C(=O)NC(CC(N)=O)C(=O)NC2C(=O)NC3C(=O)NC(C(=O)NC(C(=O)O)c4cc(O)cc(O)c4-c4cc3ccc4O)C(OC3CC(C)(N)C(O)C(C)O3)c3ccc(c(Cl)c3)Oc3cc2cc(c3OC2OC(CO)C(O)C(O)C2OC2CC(C)(NCc3ccc(Oc4ccc([N+](=O)[O-])cc4)cc3)C(O)C(C)O2)Oc2ccc(cc2Cl)C1O)N(C)Cc1ccc(Oc2ccc([N+](=O)[O-])cc2)cc1` (stereo not drawn) [Compound 267], the MIC in [1] is 1 µg/mL (≈ 0.489 µM); in assay [2], not above 0.06 µg/mL; in assay [3], 0.25 µg/mL (≈ 0.122 µM); in assay [4], 2 µg/mL (≈ 0.977 µM); in assay [5], not above 0.06 µg/mL; in [6] it was 1 µg/mL (≈ 0.489 µM). Further, the MIC in [7] turned out to be 0.5 µg/mL (≈ 0.244 µM); in [8] it was 1 µg/mL (≈ 0.489 µM); in assay [9] it was 0.5 µg/mL (≈ 0.244 µM); in assay [10], 0.5 µg/mL (≈ 0.244 µM); in assay [11] it was 0.125 µg/mL (≈ 0.0611 µM); in assay [12], 1 µg/mL (≈ 0.489 µM). The MIC in [13] is 1 µg/mL (≈ 0.489 µM); in [16] it was not above 0.06 µg/mL; in assay [17], 4 µg/mL (≈ 1.95 µM); in [18] it was 4 µg/mL (≈ 1.95 µM); in assay [19], 16 µg/mL (≈ 7.82 µM); in [20], 4 µg/mL (≈ 1.95 µM). Also, the MIC in assay [21] was 0.25 µg/mL (≈ 0.122 µM); in assay [22], more than 64 µg/mL; in assay [23], more than 64 µg/mL; in assay [24], 0.25 µg/mL (≈ 0.122 µM). Also, the “mean geometric MIC, Vancomycin Sensitive Strains” value in assay [14] was determined as 0.22 µg/mL. Besides, the “mean geometric MIC, Vancomycin Resistant Strains” value in assay [15] was found to be 2.8 µg/mL.
For `COc1cc(CNC2(C)CC(OC3C(Oc4c5cc6cc4Oc4ccc(cc4Cl)C(OC4CC(C)(N)C(O)C(C)O4)C4NC(=O)C(NC(=O)C6NC(=O)C(CC(N)=O)NC(=O)C(NC(=O)C(CC(C)C)N(C)Cc6ccc(OCc7ccccc7)c(OC)c6)C(O)c6ccc(c(Cl)c6)O5)c5ccc(O)c(c5)-c5c(O)cc(O)cc5C(C(=O)O)NC4=O)OC(CO)C(O)C3O)OC(C)C2O)ccc1OCc1ccccc1` (stereo not drawn) [Compound 268], the MIC in [1] was 2 µg/mL (≈ 0.978 µM); in assay [2] it was not above 0.06 µg/mL; in [3] it was 1 µg/mL (≈ 0.489 µM); in [4], 4 µg/mL (≈ 1.96 µM); in assay [5] it was 0.5 µg/mL (≈ 0.244 µM); in assay [6] it was 2 µg/mL (≈ 0.978 µM). In addition, the MIC in [7] came out at 4 µg/mL (≈ 1.96 µM); in assay [8], 1 µg/mL (≈ 0.489 µM); in assay [9], 2 µg/mL (≈ 0.978 µM); in [10], 2 µg/mL (≈ 0.978 µM); in assay [11] it was 0.25 µg/mL (≈ 0.122 µM); in assay [12], 2 µg/mL (≈ 0.978 µM). For the same compound, the MIC is 4 µg/mL (≈ 1.96 µM) in [13]; not above 0.06 µg/mL in assay [16]; 4 µg/mL (≈ 1.96 µM) in [17]; 1 µg/mL (≈ 0.489 µM) in assay [18]; 8 µg/mL (≈ 3.91 µM) in assay [19]; 4 µg/mL (≈ 1.96 µM) in assay [20]. The MIC was 0.5 µg/mL (≈ 0.244 µM) in [21], more than 64 µg/mL in assay [22], more than 64 µg/mL in [23] and 1 µg/mL (≈ 0.489 µM) in assay [24]. For the same compound, the “mean geometric MIC, Vancomycin Sensitive Strains” value in assay [14] is 0.87 µg/mL. Also, the “mean geometric MIC, Vancomycin Resistant Strains” value in assay [15] amounted to 6.7 µg/mL.
Consider `CC(C)CC(C(=O)NC1C(=O)NC(CC(N)=O)C(=O)NC2C(=O)NC3C(=O)NC(C(=O)NC(C(=O)O)c4cc(O)cc(O)c4-c4cc3ccc4O)C(OC3CC(C)(N)C(O)C(C)O3)c3ccc(c(Cl)c3)Oc3cc2cc(c3OC2OC(CO)C(O)C(O)C2OC2CC(C)(NCc3cccc4c3OCO4)C(O)C(C)O2)Oc2ccc(cc2Cl)C1O)N(C)Cc1cccc2c1OCO2` (stereo not drawn) [Compound 269], for which the MIC in assay [1] was 0.25 µg/mL (≈ 0.134 µM); in [2], not above 0.06 µg/mL; in [3], 0.25 µg/mL (≈ 0.134 µM); in assay [4], 0.25 µg/mL (≈ 0.134 µM); in [5], not above 0.06 µg/mL; in [6], 0.125 µg/mL (≈ 0.0672 µM). In addition, the MIC in [7] is 4 µg/mL (≈ 2.15 µM); in assay [8] it was 1 µg/mL (≈ 0.537 µM); in [9], 0.5 µg/mL (≈ 0.269 µM); in assay [10], 2 µg/mL (≈ 1.07 µM); in [11], 0.125 µg/mL (≈ 0.0672 µM); in [12] it was 0.5 µg/mL (≈ 0.269 µM). Moreover, the MIC in assay [13] was 1 µg/mL (≈ 0.537 µM); in [16] it was not above 0.06 µg/mL; in assay [17] it was 4 µg/mL (≈ 2.15 µM); in assay [18] it was 8 µg/mL (≈ 4.3 µM); in assay [19] it was 8 µg/mL (≈ 4.3 µM); in [20], 4 µg/mL (≈ 2.15 µM). In addition, the MIC in assay [21] was 4 µg/mL (≈ 2.15 µM); in assay [22], more than 64 µg/mL; in assay [23], more than 64 µg/mL; in assay [24] it was 0.125 µg/mL (≈ 0.0672 µM). In addition, in assay [14], the “mean geometric MIC, Vancomycin Sensitive Strains” value is 1.1 µg/mL. Moreover, the “mean geometric MIC, Vancomycin Resistant Strains” value in assay [15] is 38 µg/mL.

The values above are taken from patent US5840684A, “Glycopeptide antibiotic derivatives” (Eli Lilly and Company, priority 1995, dated 1998).
